In patent US20060079453A1, “Hla binding peptides and their uses” (priority 2002, published 2006) one finds IC50 data, which are given here for 20 sequences.

No end group written: not given here.

For orientation: IC50 means the concentration at which inhibition is half-maximal. A lower IC50 goes with greater potency.

What all share (assay): biochemical
What all share (format): binding

Assay [1] has as its target HLA-A*1101 (Homo sapiens, UniProt P04439, A114D/D185E/E176A/F33Y/L180Q/S129P/T187R).
Assay [2] concerns the target HLA-A*6801 (Homo sapiens, UniProt P04439, A269V/D185E/E176V/E277Q/E87N/F33Y/G231S/I121M/I166T/I218V/L180W/L300P/L318F/N151K/P208A/P217A/Q86R/R169H/T345S).
The target of assay [3] is HLA-A*3301 (Homo sapiens, UniProt P04439, A270S/D185E/E176V/E277Q/E87N/F33T/G231S/H175R/I121M/I218V/I322F/K168Q/K210R/L300P/L318F/M331R/P217A/Q86R/Q94H/R138Q/T323A/T345S/T97I/V358M/Y195H).
Assay [4] deals with HLA-A*3101 (Homo sapiens, UniProt P04439, A270S/D185E/E176V/E277Q/F33T/G231S/G80R/H175R/I121M/I218V/I322F/K168Q/L300P/L318F/M331R/P217A/Q94H/R138Q/T323A/T345S/T97I/V358M).
Assay [5] concerns the target HLA-A*0301 (Homo sapiens, UniProt P04439).

Chain of HLA-A*1101 (P04439 25-365 limits assumed, stated change not applied): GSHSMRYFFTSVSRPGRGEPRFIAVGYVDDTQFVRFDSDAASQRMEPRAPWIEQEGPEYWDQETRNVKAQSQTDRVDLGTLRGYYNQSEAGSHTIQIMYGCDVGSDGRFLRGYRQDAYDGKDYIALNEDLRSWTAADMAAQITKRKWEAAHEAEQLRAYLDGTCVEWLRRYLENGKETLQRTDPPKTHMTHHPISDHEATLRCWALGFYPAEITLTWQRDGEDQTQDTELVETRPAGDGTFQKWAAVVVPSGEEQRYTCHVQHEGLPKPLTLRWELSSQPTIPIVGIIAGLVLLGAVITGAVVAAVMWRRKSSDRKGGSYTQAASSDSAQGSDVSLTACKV

QMAVGPGPGK: the IC50 is 0.016 µM in assay [1]; 0.022 µM in assay [2]; 86.7 µM in assay [3]; 5.96 µM in assay [4]; 0.033 µM in assay [5].
The like results for VTVYYGPGPGK were, in that order, 0.024 µM, 0.03 µM, 102 µM, 9.72 µM and 0.31 µM.
For GVNHQHLPAK, the IC50 in assay [1] is 0.011 µM; in assay [2], 9.35 µM; in assay [3] it was 76.2 µM; in assay [4], 3.34 µM; in assay [5] it was 0.042 µM.
On to GVSHAQLPAK, for which the IC50 in assay [1] was 0.012 µM; in assay [2] it was 20.6 µM; in assay [3] it was more than 74.9 µM; in assay [4] it was 36 µM; in assay [5], 0.042 µM.
Regarding RFHSIAGQYK, the IC50 in assay [1] was found to be 0.043 µM; in assay [2] it was 0.083 µM; in assay [3], 0.629 µM; in assay [4], 0.0013 µM; in assay [5] it was 0.017 µM.
For GFNHQHLPAR, the IC50 in assay [1] is 27.9 µM; in assay [2], 34.6 µM; in assay [3], 5.57 µM; in assay [4], 0.173 µM; in assay [5], more than 46.6 µM.
For the sequence ELTEVFEFAFK, the 50% inhibitory concentration (IC50) in assay [1] was found to be 0.582 µM; in assay [2], 0.015 µM; in assay [3], 1.73 µM; in assay [4] it was 25.2 µM; in assay [5] it was 8.97 µM.
Consider KVGPGGYPRRK, for which the IC50 was 0.087 µM in assay [1]; 0.921 µM in assay [2]; more than 5.06 µM in assay [3]; 0.775 µM in assay [4]; 0.07 µM in assay [5].
Taken in the same sequence, the figures for TLYQIQVMKR were 0.164 µM, 0.09 µM, 0.558 µM, 0.397 µM and 0.361 µM.
As for KISEYRHYNK, the IC50 in assay [1] amounted to 0.018 µM; in assay [2] it was 15.6 µM; in assay [3], 24.8 µM; in assay [4], 0.397 µM; in assay [5], 0.029 µM.
Take KVRFHNIRGR: the IC50 was found to be 8.63 µM in assay [1]; 3.98 µM in assay [2]; 4.5 µM in assay [3]; 0.027 µM in assay [4]; 0.039 µM in assay [5].
Turning to STGPGPGVVRR, the half-inhibitory concentration (IC50) in assay [1] was determined as 0.367 µM; in assay [2], 0.0058 µM; in assay [3], 5.98 µM; in assay [4] it was 0.095 µM; in assay [5] it was 18.7 µM.
The like results for KQLCDLLIK were, in that order, 0.065 µM, 11.9 µM, 46.4 µM, 0.34 µM and 0.226 µM.
For the sequence GTRQARRNK, the IC50 in assay [1] came out at 0.749 µM; in assay [2] it was 59.7 µM; in assay [3], 46 µM; in assay [4], 9.71 µM; in assay [5], 0.067 µM.
Turning to GTGISYGRK, the half-inhibitory concentration (IC50) was 0.077 µM in assay [1]; 7.41 µM in assay [2]; more than 43.7 µM in assay [3]; 58.1 µM in assay [4]; 0.48 µM in assay [5].
Taken in the same sequence, the figures for KFSEFRWYRY were 1.59 µM, 12.8 µM, 0.856 µM, 0.034 µM and 4.75 µM.
For the sequence LTISYGRKK, the IC50 in assay [1] is 0.069 µM; in assay [2], 0.063 µM; in assay [3], 59.7 µM; in assay [4] it was 13.9 µM; in assay [5] it was 0.584 µM.
Regarding AVADLTVVYR, the IC50 was 0.011 µM in assay [1]; 0.0073 µM in assay [2]; 0.892 µM in assay [3]; 0.031 µM in assay [4]; 0.489 µM in assay [5].
The like results for KSMLKELIK were, in that order, 0.151 µM, more than 37 µM, more than 46.5 µM, 0.45 µM and 0.189 µM.
For GTRQTRKNK, the IC50 was 3.1 µM in assay [1], 18.7 µM in assay [2], more than 29.7 µM in assay [3] and 13.4 µM in assay [4].
